Measured values from ChEMBL document CHEMBL3301562, “MMV Box screening against Plasmodium falciparum protein kinases and aminoacyl tRNA synthetases”.

Key:
Type in all cases: functional
[1] = biological target: T1, Calcium-dependent protein kinase 4 (Plasmodium falciparum (isolate 3D7), UniProt Q8IBS5); assay: MMV: CDPK4 Protein kinase inhibition assay using recombinant PfCDPK4, syntide2 peptide substrate, ATP and KinaseGlo to measure % inhibition at 1 uM MMV box compound.
T1 sequence (Q8IBS5 whole entry): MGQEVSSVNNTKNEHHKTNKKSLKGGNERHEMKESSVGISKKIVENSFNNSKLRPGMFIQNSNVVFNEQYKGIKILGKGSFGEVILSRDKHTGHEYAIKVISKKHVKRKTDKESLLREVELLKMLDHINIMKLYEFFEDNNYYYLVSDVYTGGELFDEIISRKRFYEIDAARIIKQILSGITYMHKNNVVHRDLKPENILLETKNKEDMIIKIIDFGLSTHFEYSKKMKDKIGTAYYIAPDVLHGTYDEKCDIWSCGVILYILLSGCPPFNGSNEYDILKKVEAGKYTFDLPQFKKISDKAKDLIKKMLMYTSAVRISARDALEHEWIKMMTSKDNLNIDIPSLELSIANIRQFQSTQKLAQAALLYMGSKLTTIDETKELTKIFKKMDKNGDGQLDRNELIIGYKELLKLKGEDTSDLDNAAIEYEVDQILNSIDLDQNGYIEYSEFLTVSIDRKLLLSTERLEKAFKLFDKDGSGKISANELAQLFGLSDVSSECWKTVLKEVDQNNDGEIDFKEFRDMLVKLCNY

[2] = biological target: Calcium-dependent protein kinase 1 (Plasmodium falciparum, UniProt P62344); assay: MMV: CDPK1 Protein kinase inhibition assay using recombinant PfCDPK1, syntide 2 peptide substrate, ATP and KinaseGlo to measure % inhibition at 1 uM MMV box compound.
[3] = biological target: Lysine--tRNA ligase (Plasmodium falciparum (isolate 3D7), UniProt Q8IDJ8); assay: MMV: KRS recombinant Plasmodium falciparum Lysyl-tRNA-synthetase, assay with yeast tRNA, ATP, and lysine and 3 uM MMV malaria box compound, assay read out with kinase glo as % inhibition.
[4] = biological target: T2, Proline--tRNA ligase (Plasmodium falciparum (isolate 3D7), UniProt Q8I5R7); assay: MMV: ProRS recombinant Plasmodium falciparum Prolyl-tRNA-synthetase, assay with yeast tRNA, ATP, and proline and 3 uM MMV malaria box compound, assay read out with kinase glo as % inhibition.
T2 sequence (Q8I5R7 whole entry): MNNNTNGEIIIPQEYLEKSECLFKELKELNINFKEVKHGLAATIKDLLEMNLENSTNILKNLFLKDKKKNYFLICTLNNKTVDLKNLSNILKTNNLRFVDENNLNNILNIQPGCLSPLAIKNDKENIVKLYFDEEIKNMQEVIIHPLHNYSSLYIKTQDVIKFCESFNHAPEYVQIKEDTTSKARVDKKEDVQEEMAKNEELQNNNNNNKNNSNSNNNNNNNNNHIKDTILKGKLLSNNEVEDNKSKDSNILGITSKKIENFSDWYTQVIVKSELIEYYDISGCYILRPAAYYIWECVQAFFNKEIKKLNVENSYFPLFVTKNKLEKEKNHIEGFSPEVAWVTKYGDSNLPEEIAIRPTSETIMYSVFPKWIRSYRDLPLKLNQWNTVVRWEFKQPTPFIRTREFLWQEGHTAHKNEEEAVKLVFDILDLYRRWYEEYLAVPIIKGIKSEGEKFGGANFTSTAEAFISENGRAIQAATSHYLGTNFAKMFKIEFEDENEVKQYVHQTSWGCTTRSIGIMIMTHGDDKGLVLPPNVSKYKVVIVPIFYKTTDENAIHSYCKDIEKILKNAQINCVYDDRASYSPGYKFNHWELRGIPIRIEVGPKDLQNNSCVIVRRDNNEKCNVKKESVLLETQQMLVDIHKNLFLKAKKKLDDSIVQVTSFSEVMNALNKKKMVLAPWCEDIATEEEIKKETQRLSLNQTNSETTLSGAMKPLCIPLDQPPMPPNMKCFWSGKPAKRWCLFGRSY

[5] = biological target: T3, Mitogen-activated protein kinase (Plasmodium falciparum, UniProt Q25917); assay: Final concentrations were 1 uM ATP, 0.5 mM DTT, 1 mM MgCl2, 0.5 mg/mL BSA, and 10 ug/ml MAP2 in a buffer of 50 mM HEPES (pH 7.0). 0.5 mg/mL histone III-S served as the substrate (13); 100 uM AMP-PNP, an ATP analog, was used as a control inhibitor. Incubation time was 4 hours.
T3 sequence (Q25917 whole entry): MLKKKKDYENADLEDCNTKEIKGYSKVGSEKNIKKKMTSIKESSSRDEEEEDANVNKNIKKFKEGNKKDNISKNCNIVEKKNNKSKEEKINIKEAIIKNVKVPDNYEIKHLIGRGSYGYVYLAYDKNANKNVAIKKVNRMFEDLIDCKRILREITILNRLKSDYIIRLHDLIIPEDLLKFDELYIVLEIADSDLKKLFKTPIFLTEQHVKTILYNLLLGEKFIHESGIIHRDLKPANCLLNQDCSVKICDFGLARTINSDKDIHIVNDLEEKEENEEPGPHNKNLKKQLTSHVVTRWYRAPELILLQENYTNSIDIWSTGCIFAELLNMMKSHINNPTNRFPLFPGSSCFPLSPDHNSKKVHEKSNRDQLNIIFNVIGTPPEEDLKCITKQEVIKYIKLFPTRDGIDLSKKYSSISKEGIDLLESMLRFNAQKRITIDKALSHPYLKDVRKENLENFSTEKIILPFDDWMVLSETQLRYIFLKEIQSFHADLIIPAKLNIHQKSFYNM

[6] = biological target: T4, Cdk-related protein kinase 6 (Plasmodium falciparum, UniProt O77239); assay: Final concentrations were 1.5 uM ATP, 5 mM MnCl2, and 15 ug/ml PK6 in a buffer of 100 mM Tris-HCl (pH 7.5). 50 ug/mL MBP was provided as the substrate; 10 uM staurosporine was used as a control inhibitor. Incubation time was 3 hours and 40 minutes.The catalytic activity of each kinase was considered proportional to ATP consumed, as determined from measurements of residual [ATP] with the luciferase-based reagent Kinase-Glo (Promega) following incubation. Luminescence (proportional to residual [ATP]) was measured on the plate readers FLx800 (BioTek Instruments, Winooski, VT, USA) and MicroBeta2.
T4 sequence (O77239 whole entry): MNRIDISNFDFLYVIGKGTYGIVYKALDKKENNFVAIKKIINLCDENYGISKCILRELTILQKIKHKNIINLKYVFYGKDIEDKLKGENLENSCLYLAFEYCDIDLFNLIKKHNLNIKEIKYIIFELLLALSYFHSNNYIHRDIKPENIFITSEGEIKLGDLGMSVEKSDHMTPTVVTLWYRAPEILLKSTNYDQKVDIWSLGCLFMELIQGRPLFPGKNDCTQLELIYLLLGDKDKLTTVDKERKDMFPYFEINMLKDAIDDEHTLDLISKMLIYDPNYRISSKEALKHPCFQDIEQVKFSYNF

[7] = biological target: T5, Putative uncharacterized protein pk7 (Plasmodium falciparum, UniProt O96214); assay: Final concentrations were 1 uM ATP, 2 mM DTT, 20 mM MgCl2, 2 mM MnCl2, 0.01% BSA, and 6 ug/ml PK7, in a buffer of 20 mM Tris-HCl (pH 7.5). The enzyme itself was the only substrate present (since autophosphorylation occurs); 100 uM 1NA-PP1 was used as a control inhibitor. Incubation time was 3 hours.
T5 sequence (O96214 whole entry): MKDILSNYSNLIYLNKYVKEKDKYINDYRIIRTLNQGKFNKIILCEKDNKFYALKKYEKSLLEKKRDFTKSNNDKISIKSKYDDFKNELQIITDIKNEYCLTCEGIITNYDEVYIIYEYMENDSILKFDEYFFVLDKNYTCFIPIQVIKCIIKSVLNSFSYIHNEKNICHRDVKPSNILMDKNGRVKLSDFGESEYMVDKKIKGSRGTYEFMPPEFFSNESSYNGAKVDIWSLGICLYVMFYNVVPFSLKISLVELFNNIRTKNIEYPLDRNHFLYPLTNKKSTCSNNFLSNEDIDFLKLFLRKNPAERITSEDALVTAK

Sequence of Calcium-dependent protein kinase 1 (P62344 whole entry): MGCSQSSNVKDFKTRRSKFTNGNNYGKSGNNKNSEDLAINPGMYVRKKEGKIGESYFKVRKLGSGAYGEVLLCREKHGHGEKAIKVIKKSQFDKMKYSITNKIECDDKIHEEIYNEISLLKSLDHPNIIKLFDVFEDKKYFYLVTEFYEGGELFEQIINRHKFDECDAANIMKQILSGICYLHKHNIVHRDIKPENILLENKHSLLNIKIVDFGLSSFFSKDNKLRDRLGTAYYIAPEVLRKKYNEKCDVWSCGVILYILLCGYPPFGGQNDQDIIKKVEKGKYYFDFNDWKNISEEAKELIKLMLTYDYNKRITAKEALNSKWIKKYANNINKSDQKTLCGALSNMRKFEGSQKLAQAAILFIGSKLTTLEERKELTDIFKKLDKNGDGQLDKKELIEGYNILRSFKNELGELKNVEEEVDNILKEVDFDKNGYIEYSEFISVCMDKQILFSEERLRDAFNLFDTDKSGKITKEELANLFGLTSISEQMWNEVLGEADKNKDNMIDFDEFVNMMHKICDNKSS
Sequence of Lysine--tRNA ligase (Q8IDJ8 whole entry): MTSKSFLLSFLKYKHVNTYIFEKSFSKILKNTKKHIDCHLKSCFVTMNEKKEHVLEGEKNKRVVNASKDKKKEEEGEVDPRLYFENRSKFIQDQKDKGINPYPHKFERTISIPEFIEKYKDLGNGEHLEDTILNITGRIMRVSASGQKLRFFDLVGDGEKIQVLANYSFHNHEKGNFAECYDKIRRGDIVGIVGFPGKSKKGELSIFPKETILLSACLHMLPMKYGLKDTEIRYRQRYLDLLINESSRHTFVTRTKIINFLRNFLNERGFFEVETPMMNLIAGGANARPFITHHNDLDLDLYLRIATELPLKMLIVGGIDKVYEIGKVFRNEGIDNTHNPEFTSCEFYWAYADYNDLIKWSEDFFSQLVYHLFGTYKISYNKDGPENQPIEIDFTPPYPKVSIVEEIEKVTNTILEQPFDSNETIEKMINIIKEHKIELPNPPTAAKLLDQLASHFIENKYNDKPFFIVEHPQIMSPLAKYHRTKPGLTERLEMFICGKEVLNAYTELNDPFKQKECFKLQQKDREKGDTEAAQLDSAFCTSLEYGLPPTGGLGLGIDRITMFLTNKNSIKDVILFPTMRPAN

SMILES	IC50 [1] [µM]	IC50 [2] [µM]	IC50 [3] [µM]	IC50 [4] [µM]	IC50 [5] [µM]	IC50 [6] [µM]	IC50 [7] [µM]
Cc1cccc(-n2ncc3c(O)nc(-n4nc(C)cc4NC(=O)c4cc5ccccc5o4)nc32)c1	> 1	> 1	> 2.5	> 2.5	> 1	> 1	> 1
Oc1ccccc1CN1CCC2(CCCN(Cc3ccccc3F)C2)C1 (configuration not stated)	> 1	> 1	> 2.5	> 2.5	> 1	> 1	> 1
Cc1ccc(-c2cc(C(=O)Nc3ccc(S(=O)(=O)N4CCCCC4)cc3)[nH]n2)c(O)c1	> 1	> 1	> 2.5	> 2.5	> 1	> 1	> 1
Cc1[nH]c(-c2ccc(F)cc2)cc1C(=O)NC1CCN(Cc2ccccc2)CC1	> 1	> 1	> 2.5	> 2.5	> 1	> 1	> 1
O=C(NC1CCCC1)c1ccc(N2CCC(NCc3cccc(C(F)(F)F)c3)CC2)cc1	> 1	> 1	> 2.5	> 2.5	> 1	> 1	> 1
CCOc1cc(Br)c(C(C)NC(=O)c2cccc(OC)c2)cc1OCC (configuration not stated)	> 1	> 1	> 2.5	> 2.5	> 1	> 1	> 1
CCN(CC)CCn1c(=N)n(CC(O)c2ccc(Cl)c(Cl)c2)c2ccccc21 (configuration not stated)	> 1	> 1	> 2.5	> 2.5	> 1	> 1	> 1
Cc1ccc(CSCc2ccc(C(=O)NC3CC3)o2)cc1	> 1	> 1	> 2.5	> 2.5	> 1	> 1	> 1
CN1CCN(c2c3c(c(C#N)c4nc5ccccc5n24)CCC3)CC1	> 1	> 1	> 2.5	> 2.5	> 1	> 1	> 1
CC(=O)NCCc1nc2ccccc2n1Cc1ccc(C(C)C)cc1	> 1	> 1	> 2.5	> 2.5	> 1	> 1	> 1
CCN(CC)CCNc1ncnc2c1[nH]c1ccc(Br)cc12	> 1	> 1	> 2.5	> 2.5	> 1	> 1	> 1
CC(C)(C)C(=O)Nc1ccc(C(=O)Nc2cccc(-c3nc4ccccc4[nH]3)c2)cc1	> 1	> 1	> 2.5	> 2.5	> 1	> 1	> 1
COc1ccc(-c2nonc2NC(=O)c2cccc(C)c2)cc1OC	> 1	> 1	> 2.5	> 2.5	> 1	> 1	> 1
O=C(Nc1ccc(N2CCN(Cc3ccccc3)CC2)cc1)c1cccs1	> 1	> 1	> 2.5	> 2.5	> 1	> 1	> 1
O=C(Nc1ccc(N2CCCCC2)c(Cl)c1)c1ccc(Br)o1	> 1	> 1	> 2.5	> 2.5	> 1	> 1	> 1
CC(C)(C)c1ccc(C(=O)Nc2nc3ccccc3s2)cc1	> 1	> 1	> 2.5	> 2.5	> 1	> 1	> 1
COc1ccc(C2N(C)c3ccccc3N2C)cc1	> 1	> 1	> 2.5	> 2.5	> 1	> 1	> 1
CC(C)OCc1cc(CN2CCN(c3cccc(Cl)c3)CC2)c(O)c2ncccc12	> 1	> 1	> 2.5	> 2.5	> 1	> 1	> 1
CCCN(CCC)CCCNC(=O)c1cc2c(-c3ccc(OC)c(OC)c3)nn(C)c2s1	> 1	> 1	> 2.5	> 2.5	> 1	> 1	> 1
O=C(NCC1Cc2cccc(-c3ccncc3)c2O1)c1csc2c1CCCC2 (configuration not stated)	> 1	> 1	> 2.5	> 2.5	> 1	> 1	> 1
C=CCc1c(C)nc2ccccc2c1O	> 1	> 1	> 2.5	> 2.5	> 1	> 1	> 1
